Data on 14 compounds can be found in patent US20170183306A1, “CYCLIC COMPOUNDS HAVING A 1,3 DIAMINO-FUNCTIONALITY FOR USE IN THE TREATMENT OF HIV INFECTION” (Universite Paris Descartes, priority 2014, published 2017).

Counter-ions that a name gives are not always drawn. Like-named read-outs stand apart in the source and are kept apart here.

Assay type in all cases: cell-based
The test system of series [1] is wild type NL4-3 virus (HIV-1) in HeLa-p4 cells. Briefly: HeLa-p4 single-cycle HIV-1 infectivity, beta-galactosidase CPRG test. As to conditions: 48 hours after infection, control = NL4-3 virus alone; for activity at 50 µM / activity at 100 µM / activity at 200 µM: Human immunodeficiency virus 1, NL43, HeLaP4; for activity at 50 µM: read-out: Hela-p4 CPRG 50 μM; for activity at 100 µM: read-out: Hela-p4 CPRG 100 μM. As for the experimental part: (§1) HeLa-p4 cells are HeLa CD4 LTR-LacZ wherein LacZ expression is induced by the trans-activating protein Tat of HIV, making possible the precise quantification of HIV-1 infectivity from a single replication cycle. HeLa-CD4 cells growing exponentially at a density of 1×10^4/mL were placed in 96-well plates and infected the following day with 1 ng of HIV p24 antigen in the presence of different concentrations of compounds. The titles for a single cycle of the viruses were determined 48 hours after infection by quantifying the beta-galactosidase activity in lysates P4 by colorimetric test (CPRG, Promega) based on the cleavage of chlorophenol red-beta-D-galactopyranoside (CPRG) by beta-galactosidase. A cell viability assay measuring the absorbance at […] using the yellow tetrazolium reagent MTS [[…]] (Promega) was carried out.
(§2) For the helap4 cells experiments, the efficacy of the compounds is determined in comparison with control cells containing wild type NL4-3 virus alone (i.e. without any added compound) and is expressed as percentage of control. Then, the viral replication was increased for several compounds at the 50 and 100 μM concentrations with an absence of cytotoxic effects at the same concentrations (MTS test) (table 1).

Series [2] has as its system HeLa-p4 cells. In words: Cell viability assay (MTS) on HeLa-p4 cells. As for the experimental part: as §1, §2
The subject of series [3] is J-Lat cells. Briefly: J-Lat cells, percentage of GFP-positive cells by cytometry. As to conditions: 24 h, compound alone. Here is the method:
The J-Lat were grown in RPMI 1640 medium (Gibco-BRL) supplemented with 10% fetal bovine serum, 50 U/ml of penicillin, […] of streptomycin at 37 uC in a humidified 95% air/5% CO2 atmosphere. The cells were plated at 5.105 cells in a 96 well-plate. TNF ? was purchased from Immunosource. SAHA (suberoylanilide hydroxamic acid), prostratin (12-deoxyphorbol-13-acetate) and vorinostat were obtained from Sigma-Aldrich. The J-Lat cells were treated for 24 h with the different compounds alone. The cells were washed twice in PBS, re-suspended in PBS containing 4% paraformaldehyde and fixed for 30 min. Cells were next washed and re-suspended in PBS. The percentage of GFP-positive cells was measured with a LSRFortessa cytometer (Becton-Dickinson) using FACSDiva Version 6.1.3 according to the manufacturer's instructions.
The results for the J-Lat cells experiments are expressed as a percentage of the living fluorescent cells. In this model, some slight increase of viral production measured by fluorescence are quantified (table 1).

For `CC(C)N1C[C@H](N)C[C@H](N)C1` [AB542, 1-isopropylpiperidine-3,5-diamine], the activity at 50 µM in series [1] (50 μM) is 113%. Further, in series [1] (100 μM), the activity at 100 µM stood at 106%. Further, the “Hela-p4 MTS 50 μM” value in series [2] (50 μM, cell viability) turned out to be 100. The “Hela-p4 MTS 100 μM” value in series [2] (100 μM, cell viability) turned out to be 99. For the same compound, in series [3], the “J-lat 50 μM” value is on record as 0.1 percentage of the living fluorescent cells and the “J-lat 100 μM” value is recorded as 0.7 percentage of the living fluorescent cells.

In the case of `N[C@@H]1C[C@H](N)CN(c2ccc(NC(=O)c3ccccc3)c(O)c2)C1` [AB-120, N-(4-((3S,5R)-3,5-diaminopiperidin-1-yl)-2-hydroxyphenyl)benzamide], the activity at 50 µM in series [1] (50 μM) is 144%. Further, the activity at 100 µM in series [1] (100 μM) is 230%. For the same compound, the activity at 200 µM in series [1] was determined as 215%. Moreover, the “Hela-p4 MTS 50 μM” value in series [2] (50 μM, cell viability) worked out at 94. Also, in series [2] (100 μM, cell viability), the “Hela-p4 MTS 100 μM” value was found to be 90. Besides, in series [2] (cell viability), the “Hela-p4 MTS 200 μM” value was 55. Also, in series [3], the “J-lat 50 μM” value is 0.1 percentage of the living fluorescent cells and the “J-lat 100 μM” value is given as 12.3 percentage of the living fluorescent cells.

As to `COc1cc(CN2C[C@H](N)C[C@H](N)C2)cc(OC)c1` [ECO02-064-C, 1-(3,5-dimethoxybenzyl)piperidine-3,5-diamine], in series [1] (50 μM), the activity at 50 µM amounted to 109%. In addition, the activity at 100 µM in series [1] (100 μM) is 133%. Further, the “Hela-p4 MTS 50 μM” value in series [2] (50 μM, cell viability) is 115. In addition, the “Hela-p4 MTS 100 μM” value in series [2] (100 μM, cell viability) turned out to be 107. Moreover, in series [3], the “J-lat 50 μM” value is on record as 2.4 percentage of the living fluorescent cells.

Consider `COc1cccc(CCN2C[C@@H](N)C[C@@H](NC(=O)OC(C)(C)C)C2)c1` [ECO02-078-C], for which the activity at 50 µM in series [1] (50 μM) was 251%. Moreover, the activity at 100 µM in series [1] (100 μM) worked out at 390%. For the same compound, in series [1], the activity at 200 µM stood at 145%. In series [2] (50 μM, cell viability), the “Hela-p4 MTS 50 μM” value came out at 105. Also, in series [2] (100 μM, cell viability), the “Hela-p4 MTS 100 μM” value was 103. Moreover, in series [2] (cell viability), the “Hela-p4 MTS 200 μM” value came to 25. Also, the “J-lat 50 μM” value in series [3] is 0.8 percentage of the living fluorescent cells.

Turning to `COc1cccc(CCN2C[C@H](NS(C)(=O)=O)C[C@H](NS(C)(=O)=O)C2)c1` [ECO02-073-B2, N,N′-(1-(3-methoxyphenethyl)piperidine-3,5-diyl)dimethanesulfonamide], in series [1] (50 μM), the activity at 50 µM came out at 103%. For the same compound, the activity at 100 µM in series [1] (100 μM) turned out to be 127%. In addition, the activity at 200 µM in series [1] turned out to be 253%. In addition, the “Hela-p4 MTS 50 μM” value in series [2] (50 μM, cell viability) stood at 96. Also, the “Hela-p4 MTS 100 μM” value in series [2] (100 μM, cell viability) came to 94. In addition, in series [2] (cell viability), the “Hela-p4 MTS 200 μM” value is given as 69. Further, the “J-lat 50 μM” value in series [3] was 0.6 percentage of the living fluorescent cells.

Take “1-(3,5-diaminopiperidin-1-yl)-2-(3-methoxyphenyl)ethanone [ECO02-031-C]”: the “Hela-p4 CPRG 50 μM” value in series [1] (50 μM) was 146 percentage of control. In addition, the “Hela-p4 CPRG 100 μM” value in series [1] (100 μM) was 222 percentage of control. Also, in series [2], the “Hela-p4 MTS 50 μM” value was 116 and the “Hela-p4 MTS 100 μM” value worked out at 110. For the same compound, in series [3], the “J-lat 50 μM” value was 0.2 percentage of the living fluorescent cells and the “J-lat 100 μM” value was 0.1 percentage of the living fluorescent cells.

Regarding `COc1ccc(-c2ccc(N3C[C@H](N)C[C@H](N)C3)cc2)cc1` [ECO02-029-C, 1-(4′-methoxy-[1,1′-biphenyl]-4-yl)piperidine-3,5-diamine4-(2-((3S,5R)-3,5-diaminopiperidin-1-yl)ethyl)phenol], the activity at 50 µM in series [1] (50 μM) stood at 29%. In addition, in series [1] (100 μM), the activity at 100 µM was 30%. Further, the “Hela-p4 MTS 50 μM” value in series [2] (50 μM, cell viability) was found to be 25. The “Hela-p4 MTS 100 μM” value in series [2] (100 μM, cell viability) is recorded as 25. Also, in series [3], the “J-lat 50 μM” value was 2.4 percentage of the living fluorescent cells.

`COc1ccc(CN2C[C@H](N)C[C@H](N)C2)cc1` [AB-378, (3S,5R)-1-(4-methoxybenzyl)piperidine-3,5-diamine]: in series [1] (50 μM), the activity at 50 µM is 169%. In addition, the activity at 100 µM in series [1] (100 μM) was 199%. Besides, the activity at 200 µM in series [1] was determined as 312%. Also, the “Hela-p4 MTS 50 μM” value in series [2] (50 μM, cell viability) turned out to be 98. The “Hela-p4 MTS 100 μM” value in series [2] (100 μM, cell viability) is on record as 94. The “Hela-p4 MTS 200 μM” value in series [2] (cell viability) is given as 72. In addition, in series [3], the “J-lat 50 μM” value is on record as 0.2 percentage of the living fluorescent cells and the “J-lat 100 μM” value was 1.7 percentage of the living fluorescent cells.

As to `N[C@@H]1C[C@H](N)CN(c2ccc3c(c2)OCO3)C1` [ECO01-042-C], the activity at 50 µM in series [1] (50 μM) amounted to 146%. In addition, in series [1] (100 μM), the activity at 100 µM worked out at 104%. For the same compound, in series [2] (50 μM, cell viability), the “Hela-p4 MTS 50 μM” value was 85. Further, the “Hela-p4 MTS 100 μM” value in series [2] (100 μM, cell viability) turned out to be 60. In series [3], the “J-lat 50 μM” value was 0.2 percentage of the living fluorescent cells and the “J-lat 100 μM” value is given as 0.4 percentage of the living fluorescent cells.

Regarding `CC(C)(C)OC(=O)N[C@@H]1C[C@H](NC(=O)OC(C)(C)C)CN(Cc2ccc(N3CCCC3)cc2)C1` [ECO02-059-C, di-tert-butyl (1-(4-(pyrrolidin-1-yl)benzyl)piperidine-3,5-diyl)dicarbamate], the activity at 50 µM in series [1] (50 μM) stood at 198%. In addition, the activity at 100 µM in series [1] (100 μM) was found to be 177%. Besides, the “Hela-p4 MTS 50 μM” value in series [2] (50 μM, cell viability) was determined as 95. Moreover, in series [2] (100 μM, cell viability), the “Hela-p4 MTS 100 μM” value was 67. For the same compound, the “J-lat 50 μM” value in series [3] was 0.5 percentage of the living fluorescent cells.

Consider `COC(=O)[C@H](Cc1ccccc1)N1C[C@H](N)C[C@H](N)C1` [AB-81, (S)-methyl 2-((3S,5R)-3,5-diaminopiperidin-1-yl)-3-phenylpropanoate], for which the activity at 50 µM in series [1] (50 μM) stood at 151%. The activity at 100 µM in series [1] (100 μM) came out at 147%. For the same compound, in series [2] (50 μM, cell viability), the “Hela-p4 MTS 50 μM” value is reported as 96. The “Hela-p4 MTS 100 μM” value in series [2] (100 μM, cell viability) came out at 94. For the same compound, in series [3], the “J-lat 50 μM” value was 0.1 percentage of the living fluorescent cells and the “J-lat 100 μM” value was 0.8 percentage of the living fluorescent cells.

For the compound `N[C@@H]1C[C@H](N)CN(Cc2ccccc2)C1` [ECO02-063-C, 1-benzylpiperidine-3,5-diamine trihydrochloride], the activity at 50 µM in series [1] (50 μM) stood at 85%. Moreover, the activity at 100 µM in series [1] (100 μM) stood at 107%. For the same compound, in series [1], the activity at 200 µM is 193%. The “Hela-p4 MTS 50 μM” value in series [2] (50 μM, cell viability) came to 108. For the same compound, the “Hela-p4 MTS 100 μM” value in series [2] (100 μM, cell viability) is reported as 112. The “Hela-p4 MTS 200 μM” value in series [2] (cell viability) is reported as 81. Moreover, the “J-lat 50 μM” value in series [3] was 2.9 percentage of the living fluorescent cells.

`COc1cc(N2C[C@H](N)C[C@H](N)C2)cc(OC)c1OC` [AB-116, (3S,5R)-1-(3,4,5-trimethoxyphenyl)piperidine-3,5-diamine]: the activity at 50 µM in series [1] (50 μM) is 135%. For the same compound, the activity at 100 µM in series [1] (100 μM) stood at 172%. For the same compound, the activity at 200 µM in series [1] is 248%. Also, the “Hela-p4 MTS 50 μM” value in series [2] (50 μM, cell viability) amounted to 96. In series [2] (100 μM, cell viability), the “Hela-p4 MTS 100 μM” value worked out at 97. Also, the “Hela-p4 MTS 200 μM” value in series [2] (cell viability) came to 86. In series [3], the “J-lat 50 μM” value was 0 percentage of the living fluorescent cells and the “J-lat 100 μM” value was 0.5 percentage of the living fluorescent cells.

With `CCc1ccc(C(=O)NC(CCCCN)C(=O)N2C[C@H](N)C[C@H](N)C2)cc1` (some centres unmarked) [AB289-2, N-(6-amino-1-(3,5-diaminopiperidin-1-yl)-1-oxohexan-2-yl)-4-ethylbenzamide], in series [1] (50 μM), the activity at 50 µM amounted to 154%. Also, the activity at 100 µM in series [1] (100 μM) turned out to be 219%. Moreover, in series [1], the activity at 200 µM came out at 248%. For the same compound, in series [2] (50 μM, cell viability), the “Hela-p4 MTS 50 μM” value amounted to 113. In addition, the “Hela-p4 MTS 100 μM” value in series [2] (100 μM, cell viability) is listed as 101. In addition, in series [2] (cell viability), the “Hela-p4 MTS 200 μM” value is reported as 72. Besides, in series [3], the “J-lat 50 μM” value is recorded as 0.1 percentage of the living fluorescent cells and the “J-lat 100 μM” value was 0.2 percentage of the living fluorescent cells.
